Reference: patent US11207331B2, “Agents, compositions and methods for enhancing neurological function” (University of Southern California, priority 2007, dated 2021)
“Also recorded” adds a separate entry of the source.

Columns and labels:
[1] = system: β-amyloid; assay: β-amyloid expression with antibody 6E10 (Western blot, immunostaining); assay type: in vivo, mouse; conditions: for decrease of 56 kDa β-amyloid (Aβ*56) band intensity vs vehicle: cortex
Protocol: In a pilot project to determine the impact of longterm exposure to THP, the impact of THP, 10 mg/kg s.c. thrice weekly for 3 months, on the progression of Alzheimer's disease (AD) pathology in 3-6 month old 3×TgAD mice was investigated. Mouse brain hemisphere sections were immunostained with specific antibody (6E10) against Aβ or HT7, which recognizes tau and PHF-tau between residue 159 and 163 and visualized with FITC conjugated second antibody.
In another experiment, THP (10 mg/kg/week, administered once a week for 6 months) was administered to 9- and 12-month male mice transgenic for Alzheimer's disease (3×Tg-AD). The 9 month old animals were started on THP at 3 months of age prior to the development of beta amyloid, whereas the 12 month old animals were begun at 6 months of age when beta amyloid had already begun to accumulate within neurons. Typically, the development of intraneuronal beta amyloid is seen in 6 and 9 month old animals and the development of plaques in 12 month old animals. Plaques are rarely seen in 9 month old animals.
Brain sections were stained with beta amyloid antibody 6E10.
THP (10 mg/kg) or vehicle was transdermal treated once a week to 3-month-old 3×Tg-AD mice for 6 months. Western blot analysis was conducted using brain protein from hippocampus with beta amyloid antibody 6E10, which recognizes the abnormally processed isoforms, as well as precursor forms of beta amyloid protein.
THP (10 mg/kg) or vehicle was subcutaneously administered once a month, once per week for 6 months, or once every other day for 3 months. Brain sections of treated mice were stained with beta amyloid antibody 6E10 which recognizes the abnormally processed isoforms, as well as precursor forms of beta amyloid protein.
Further studies were conducted using a dosing regime of once a week for six months administered subcutaneously. Three and six months old 3×Tg-AD and age-matched non-Tg mice were chosen for the experiments, since AD pathology (Aβ) starts development at 3-month and abundant accumulation at 6-months. Allopregnanolone was subcutaneously (s.c.) administrated with 10 mg/kg once per week for 6 months. For neurogenesis and neurosurvival study, BrdU, IdU and CIdU were intraperitoneal (i.p.) injected at the first 5 days, mid 5 days and 5 days before sacrifice during 6-month treatment. After 6 months of allopregnanolone treatment, mice, at 9- and 12-month old, were sacrificed.
Western blot analysis was conducted using brain protein from frontal-parietal-temporal cortex with beta amyloid antibody 6E10, which recognizes the abnormally processed isoforms, as well as precursor forms of beta amyloid protein. The expression of different forms of beta amyloid in 3×Tg-AD mice was characterized.

[2] = system: mouse dentate gyrus subgranular zone (SGZ); assay: Unbiased stereology of BrdU-positive cells in dentate gyrus subgranular zone; assay type: in vivo; conditions: for cell proliferation (normal BrdU+ cells) / pyknotic BrdU+ cell count after THP treatment: 24 hr; for pyknotic BrdU+ cell count after THP treatment: 6-months, 10 mg/kg s.c.
Protocol: Mice of each genotype and age received a subcutaneous (s.c.) injection of THP at a concentration of 10 mg/kg body weight (BW), an optimal dose of THP-[…] based on our previous studies. One hour after THP injection, mice were intraperitoneally (i.p.) injected with 100 mg/kg BW bromodeoxyuridine (BrdU). Two experimental paradigms were used: 1) THP treatment for behavior and cell survival assessment, in which animals received a single shot of THP/vehicle, followed by a 7-day neurogenesis and migration phase, followed by a 5-day trace-conditioning test followed 9 days later by a 1-day memory test, and scarified 21 days after a single THP injection at which time FACS analysis of BrdU positive cells was performed to assess cell survival; 2).
Acute THP treatment for cell proliferation assessment, in which animals received a single injection of THP/vehicle and were sacrificed 24 hr later followed by quantitative unbiased stereology of BrdU positive cells.
Mice were sacrificed 24 h after THP administration for cell proliferation assessment or at the end of memory test for cell survival assessment. On the day of sacrifice mice were deeply anesthetized with a combination of ketamine (100 mg/kg) and xylazine (10 mg/kg), and perfused with PBS. Brains were dissected into two hemispheres, and one hemisphere was fixed immediately in cold 4% paraformaldehyde and was used for either stereological analysis (cell proliferation) or FACS analysis (cell survival).
The fixed hemispheres from cell proliferation assessment experiment were sectioned into a series of 40 μm coronal sections and every sixth section in the series was processed for BrdU histolabeling by NeuroScience Associates (Knoxville, Tenn.). Prior to labeling, all slides were coded and the codes were not broken until analyses were completed. The number of BrdU labeled cells was determined by unbiased stereology (optical dissector). Systematic samplings of unbiased counting frames of 50 μm on a side with a 200 μm matrix spacing were produced using a semiautomatic stereology system (Zeiss Axiovert 200M fluorescent microscope as part of the 3iMarianas digital microscopy and a 60×SPlan apochromat oil objective (1.4 numerical aperture). Positive cells that intersected the uppermost focal (exclusion) plane and those that intersected the exclusion boundaries of the unbiased sampling frame were excluded from analysis. Cells that met analysis criteria through a 20 μm axial distance were counted according to the optical dissector principle. The granule cell layer reference volume was determined by summing the traced SGZ, granule cell areas for each section multiplied by the distance between sections sampled. The mean granule cell number per dissector volume was multiplied by the reference volume to estimate the total granule cell number. The stereologically determined number of BrdU-positive cells was related to the granule cell layer sectional volume and multiplied by the reference volume to estimate the total number of BrdU-positive cells.
Total BrdU labeled cells were quantified for 3, 6, 9, and 12 months non-Tg and 3×TgAD male mice. The serial brain sections were collected to analyze the effects of THP on BrdU incorporation by unbiased stereological analysis. Data are represented as mean±SEM (n≥4 in each group). […] PCNA, an S-phase cell cycle marker, was increased in THP compared to vehicle control in 3×TgAD mice in three month (FIG. 12B) and six month (FIG. 12C) mice as shown by immunoblot.
To decipher the THP effect in neurogenesis, cell proliferation assessment experiments were conducted. Following animal sacrifice and brain section staining, unbiased stereology was conducted in both non-Tg and 3×TgAD mice at three different ages.

CC(=O)[C@H]1CC[C@H]2[C@@H]3CC[C@H]4C[C@H](O)CC[C@]4(C)[C@H]3CC[C@]12C [THP, 3α-hydroxy-5α-pregnan-20-one]
immunocytochemical detection of Abeta*56 ([1]; 10 mg/kg once a week for six months): substantially decreases Abeta*56 in hippocampal neurons
6E10 immunoreactivity ([1]; 10 mg/kg s.c. every other day for 3 months or once a week for 6 months): significantly decreases 6E10 immunoreactivity
6E10 immunoreactivity ([1]; 10 mg/kg s.c. once a month): no effect
6E10 / intraneuronal Aβ immunoreactivity in brain sections ([1]; 3×Tg-AD mice, once a week for 6 months): lower in THP-treated brain region CA1, Cortex and Amygdala than vehicle treated-brain, but not in the subiculum; also recorded: lower in THP-treated 9-month old 3×Tg-AD mice hippocampus, cortex, and amygdala than in vehicle-treated brain, but not in subiculum
AD pathology markers (Aβ 6E10, tau HT7 immunoreactivity) ([1]; 3×TgAD mice, 10 mg/kg s.c. thrice weekly for 3 months): reduced the level of AD pathology markers in 3×TgAD mouse hippocampal CA1
reduction of Aβ 6-mer 27 kDa band intensity ([1]; 9-month 3×Tg-AD mice, 10 mg/kg s.c. once a week for 6 months): 35±10%
decrease of 56 kDa β-amyloid (Aβ*56) band intensity vs vehicle ([1]; 9-month old 3×Tg-AD mice, 10 mg/kg s.c. once a week for 6 months): 25±4%
Aβ 6-mer 27 kDa band intensity vs vehicle ([1]; 12-month old 3×Tg mice): no difference
decrease of 56 kDa β-amyloid (Aβ*56) band intensity vs vehicle ([1]; 12-month old 3×Tg-AD mice, 10 mg/kg s.c. once a week for 6 months): 15±4%
decrease of 28 kDa β-amyloid oligomer band intensity vs vehicle ([1]; transdermal 10 mg/kg once a week for 6 months, 9-month old 3×Tg-AD mice, hippocampus): 39±13%
increase in BrdU incorporation vs vehicle control group ([2]; 3×TgAD mice, 3 months, 10 mg/kg BW s.c., 24 hours): 55+18%
cell proliferation (normal BrdU+ cells) ([2]; 3×TgAD mice, 6, 9, 12 months): no significant effect in cell proliferation
pyknotic BrdU+ cell count after THP treatment ([2]; 3×TgAD mice): 48.0±48.00
neurogenic deficit of 3×TgAD mice vs non-Tg (total BrdU cells) ([2]; 3×TgAD mice, one s.c. dose, 24 hours): restored proliferation to that of normal nontransgenic mice; also recorded: reversed the neurogenic deficit of the 3×TgAD mouse SGZ and restored normal levels of neurogenesis
pyknotic cell population, vehicle vs THP ([2]; non-Tg and 3×TgAD mice, 9- and 12-months): no difference
cell proliferation (normal BrdU+ cells) ([2]; non-Tg mice, 6, 9, 12 months): no effect on cell proliferation
pyknotic BrdU+ cell count after THP treatment ([2]; non-Tg mice): 576.0±185.49
